Values quoted from earlier work, collected in US20260021069A1, “ADVANTAGEOUS FLUOROB[…] THE TREATMENT OF MENTAL DISORDERS OR ENHANCEMENT” (TACTOGEN INC, priority 2023, published 2026).

Columns and labels:
DAT and NET = details: Rothman et al. 2001
DAT and SERT [1] = details: uptake inhibition IC50 based; literature value
DAT and SERT [2] = details: release based; Rothman et al. 2012
[3] = after 75 or 125 mg MDMA; standard deviation of 1.3 hours; Vizeli & Liechti 2017

## C[C@H](N)Cc1ccccc1 [d-amphetamine]
DAT and NET
  DAT/NET EC50 ratio: 0.9

## CN[C@@H](C)Cc1ccccc1 [d-methamphetamine]
DAT and NET
  DAT/NET EC50 ratio: 0.5

## CCNC(C)Cc1ccc2c(c1)OCO2 (stereo not drawn) [MDEA, 3,4-methylenedioxy-N-ethylamphetamine]
DAT and SERT [1]
  DAT/SERT ratio (1/IC50 at DAT divided by 1/IC50 at SERT): 3.2
DAT and SERT [2]
  DAT/SERT EC50 ratio: 0.76

## CNC(C)Cc1ccc2c(c1)OCO2 (stereo not drawn) [MDMA]
DAT and SERT [1]
  DAT/SERT ratio (1/IC50 at DAT divided by 1/IC50 at SERT): 0.08
[3]
  duration of acute therapeutic effects: 4.2 h
